Assay results as given in patent US20230131630A1, “METHOD OF SCREENING FOR A SUBSTANCE THAT ACTS ON A CELL MASS” (LSI MEDIENCE CORPORATION, priority 2017, published 2023).

Assays:
[1] = test system: PDX tumor of pancreatic cancer (1); experiment: In vivo anticancer drug sensitivity test, PDX tumor grafted subcutaneously in immunodeficient mice; details: super SCID mouse, subcutaneous graft; gemcitabine 60 mg/kg/time twice weekly for 4 weeks; FIG. 8 left
Method: An in vivo anticancer drug sensitivity test was performed by the following procedures with reference to a known method. A PDX tumor of pancreatic cancer (1), which was subcutaneously grown in an immunodeficient mouse [super SCID mouse (strain name: C3H/HeJ/NOs-scid; LPS-nonresponder)], was aseptically extracted in a safety cabinet, and every necrotic area of the tumor was removed with surgical scissors. Subsequently, graft tumor fragments each having a size of about 2 to 3 mm square were prepared and subcutaneously grafted in at least 12 immunodeficient mice. When the average tumor volume reached about 200 mm^3, the mice were grouped by tumor volume and assigned to a control group and a gemcitabine administration group (N = 6: 6 mice each under the same conditions). Gemcitabine (60 mg/kg/time) was administered at a dosing frequency of twice weekly for 4 weeks. The tumor diameter was measured at a frequency of twice weekly and the tumor volume was calculated, thereby creating a tumor proliferation curve.

[2] = test system: cell mass of primary cancer cells from PDX tumor of pancreatic cancer (1); experiment: In vitro anticancer drug sensitivity test, ATP assay (CellTiter-Glo 3D) on three-dimensionally cultured cell mass; assay type: cell-based, human; details: fresh tumor; gemcitabine 0.001-10 µmol/L from Day 7, ATP assay on Day 14; FIG. 8 right
Method: A half of medium exchange was performed with a culture medium supplemented with gemcitabine on Day 7. A half of medium exchange was performed with a culture medium supplemented with gemcitabine which was adjusted to maintain the final concentration on Days 10 and 12. On Day 14, ATP assay was performed, and the proportion based on the result of each gemcitabine concentration group was calculated when the result at a gemcitabine concentration of 0 µmol / L was defined as a cell viability of 100%, thereby creating a cell viability curve. An in vitro anticancer drug sensitivity test was performed by the following procedures. After dispersion treatment, the necessary amount of cells counted were collected in a 15-mL tube, and the supernatant was removed by centrifugation at 300 × g for 5 min. Thereafter, a cell suspension was prepared so that the cell count was 5 × 10^4 cells/mL using a medium prepared by adding Corning Matrigel GFR (Corning Incorporated) to StemPro hESC SFM (Thermo Fisher Scientific K.K.) to yield a final concentration of 2% v/v. […] The seeded cell count was 1 × 10^4 cells/200 µL/well, and the day of seeding was determined to be Day 0. […] The proportion of the result of each gemcitabine concentration group was calculated when the result at a gemcitabine concentration of 0 µmol / L was defined as a cell viability of 100%, thereby creating a cell viability curve.

[3] = test system: cell mass originating from the once-frozen PDX tumor of pancreatic cancer (1); experiment: In vitro gemcitabine sensitivity test, ATP assay on cell mass from once-frozen tumor tissue; assay type: cell-based, human; details: gemcitabine 0.001-10 µmol/L from Day 3, ATP assay on Day 7, FIG. 9
Method: The PDX tumor of pancreatic cancer (1) (procured from National Institutes of Biomedical Innovation, Health and Nutrition) was extracted in accordance with Example 1. The tumor was immersed in CELLBANKER 1 (Takara Bio Inc.) and frozen by a Program Deep Freezer (Nepa Gene Co., Ltd.), thereby preparing a frozen tumor. The frozen tumor was thawed in a warm bath at 37° C. and washed with HBSS (Thermo Fisher Scientific K.K.), and then, primary cancer cells were prepared in accordance with Example 1. After dispersion treatment, the necessary amount of cells counted were collected in a 15-mL tube, and the supernatant was removed by centrifugation at 300 × g for 5 min. […] The seeded cell count was 1 × 10^4 cells/200 µL/well, and the day of seeding was determined to be Day 0. […] The proportion of the result of each measurement day with respect to the result of Day 0 was calculated, and a proliferation curve was created. The proportion based on the result of each gemcitabine concentration group was calculated when the result at a gemcitabine concentration of 0 µmol / L was defined as a cell viability of 100%, thereby creating a cell viability curve.

[4] = test system: reproduced cell mass originating from the PDX tumor of pancreatic cancer (1); experiment: In vitro gemcitabine sensitivity test, ATP assay on subcultured (reproduced) cell mass; assay type: cell-based, human; details: fresh or frozen tumor-derived, gemcitabine 0.001-10 µmol/L from Day 3, ATP assay on Day 7, FIGS. 10-1, 10-2
Method: A fresh tumor-derived cell mass and a frozen tumor-derived cell mass were obtained in accordance with Examples 1 and 10, respectively, using a PDX tumor of pancreatic cancer (1) (procured from National Institutes of Biomedical Innovation, Health and Nutrition). Each cell mass was collected in a 50-mL tube, and the supernatant was removed by centrifugation at 300 × g for 5 min. Thereafter, the cell mass was suspended in TrypLE (Thermo Fisher Scientific K.K.) and enzymatically treated in a warm bath at 37° C. The reaction was weakened by adding 10 times the amount of HBSS (Thermo Fisher Scientific K.K.) to the reaction solution. The undispersed residues were removed by passing the mixture through a 100-µm cell strainer. […]
The necessary amount of cells were collected in a 15-mL tube, and the supernatant was removed by centrifugation at 300 × g for 5 min. […] The seeded cell count was 1 × 10^4 cells/200 µL/well (fresh tumor-derived) or 4 × 10^3 cells/200 µL/well (frozen tumor-derived), and the day of seeding was determined to be Day 0. […] The ratio of the result of each measurement day with respect to the result of Day 0 was calculated, and a growth curve was created. The proportion based on the result of each gemcitabine concentration group was calculated when the result at a gemcitabine concentration of 0 µmol/L was defined as a cell viability of 100%, thereby creating a cell viability curve. […]

Nc1ccn([C@@H]2O[C@H](CO)[C@@H](O)C2(F)F)c(=O)n1 [Gemcitabine, gemcitabine]
inhibited proliferation: proliferation of the PDX tumor (tumor volume, tumor proliferation curve) [1] | proliferation / cell viability (ATP assay) of the cell mass [2] | proliferation / cell viability (ATP assay) of the cell mass [3] | proliferation / cell viability (ATP assay) of the reproduced cell mass [4]
